The term inhibition denotes the change of the read-out against control, counted positive when it falls.

Like-named read-outs stand apart in the source and are kept apart here.

The record followed here is patent publication US6548540B2, “Method of treating cancer using dithiocarbamate derivatives” (Charlotte-Mecklenburg Hospital Authority, priority 1998, dated 2003).

The subject of one assay is M1619 melanoma cells. Description: DNA cell cycle by flow cytometry. Format: cell-based, human. The settings on record: 24 hours. On the procedure:
To study the effect of disulfiram on the DNA cell cycle, cells were grown to confluence in 25 cm^2 plastic flasks and treated for with 10% FBS plus DMSO vehicle, FBS and DMSO vehicle plus 250 μg/ml ceruloplasmin as a source of copper, FBS plus 5 μM disulfiram or FBS plus 5 μM disulfiram and 250 μg/ml ceruloplasmin. After 24 hours cells were trypsinized, washed twice in cold DPBS with 1 mM EDTA and 1% BSA, fixed 30 minute in ice-cold 70% ethanol, and stained by incubation for 30 minutes at 37° C. in a 10 μg/ml solution of propidium iodide in DPBS and 1 mg/ml RNase A. DNA cell cycle measurements were made using a FACStar^PLUS Flow Cytometer (Becton-Dickenson, San Jose, Calif.).
The antiproliferative activity of dithiocarbamate disulfides depends on complexation with copper. PDTC induces apoptosis in normal thymocytes that is mediated by complexation of copper from fetal bovine serum in the medium and subsequent facilitation of copper transport into cells. […] Unsynchronized M1619 melanoma cells were grown in the presence of DMSO vehicle (A), 5 μM disulfiram (B), or 5 μM disulfiram plus 250 μg/ml ceruloplasmin (Cerulo) as a source of copper (C). Twenty-four hours later, cells were harvested and flow cytometric analysis was performed. The proportion of nuclei in each phase of the cell cycle (brackets) was determined with MODFIT DNA analysis software. Disulfiram increases the portion of cells in S phase. The combination of disulfiram and ceruloplasmin further increases the number of cells in S phase, prevents progression into the G2-M cell cycle and induces apoptosis.
A general note: A flow cytometer gives signals particle by particle.

The subject of assay [1] is Adenosquamous lung carcinoma NCI-H596. Description: MTT proliferation assay, adenosquamous lung carcinoma. Format: cell-based. The conditions noted are these: Homo sapiens, read-out: Mean Percent Inhibition of Growth; for inhibition at 0.625 µM: disulfiram 0.625 μM; for inhibition at 1.25 µM: disulfiram 1.25 μM; for inhibition at 2.5 µM: disulfiram 2.5 μM; for inhibition at 5 µM: disulfiram 5.0 μM. On the procedure:
(§1) Human malignant cell lines were obtained from American Type Tissue Culture Collection (Rockville, Md.). Melanoma cells lines CRL 1585 and 1619 were cultured in RPMI 1640 (GIBCO-BRL, Life Technologies, Grand Island, N.Y.) with 10% FBS and passed with nonenzymatic Cell Dissociation Solution® (Sigma). The prostate adenocarcinoma cell line CRL 1435 (PC-3) was also cultured in RPMI 1640 with 10% FBS but passed with 0.05% trypsin and 0.53 mM EDTA. The squamous lung carcinoma NCI-H520 and the adenosquamous lung carcinoma NCI-H596 cell lines were grown in RPMI 1640 supplemented with 10% FBS, 10 mM HEPES and 1.0 mM sodium pyruvate and passed with trypsin/EDTA. The small cell lung carcinoma NCI-H82 was cultured as a suspension in RPMI 1640 with 10% FBS. All of the above were grown in a 37° C. humidified environment containing 5% CO2/air. The breast carcinoma cell line MDA-MB-453 was grown in a 37° C. humidified environment with free gas exchange with atmospheric air using Leibovitz's L-15 medium with 2 mM L-glutamine and 10% FBS and was passed with trypsin/EDTA.
(§2) The effect of disulfiram (0.15 to 5.0 μM), diethyldithiocarbamate (DDC, 1.0 μM) or PDTC (0.625 to 5.0 μM) on proliferation of malignant cell lines was studied in cultures stimulated with 10% FBS. Cell numbers were quantitated 24-72 hours later. In some experiments disulfiram or PDTC were added immediately after cells were plated. In other experiments, cells were plated and allowed to grow for 24-72 hours before fresh media with disulfiram or PDTC was added, and cell numbers were assayed 24-72 hours later. Synergy was studied between disulfiram and N,N′-bis(2-chloroethyl-N-nitrosourea (carmustine or BCNU, 1.0 to 1,000 μM) or cisplatin (0.1 to 100 μg/ml) added to medium. The effect of metals on disulfiram was studied with 0.2 to 10 μM copper (provided as CuSO4), zinc (as ZnCl2), silver (as silver lactate) or gold (as HAuCl4.3H2O) ions added to growth medium. No pH changes occurred with addition of metal salts to culture medium. To provide a biologically relevant source of copper, in some experiments medium was supplemented with human ceruloplasmin at doses replicating low and high normal adult serum concentrations (250 and 500 μg/ml).
(§3) Proliferation of cultured cells was quantitated using a previously reported calorimetric method based upon metabolic reduction of the soluble yellow tetrazolium dye 3-[4,5-dimethylthiazol]-2yl-2,5-diphenyl tetrazolium bromide (MTT) to its insoluble purple formazan by the action of mitochondrial succinyl dehydrogenase (See, e.g., S. J. Hirst, et al., “Quantifying proliferation of cultured human and rabbit airway smooth muscle in response to serum and platelet derived growth factor,” Am. J. Respir. Cell Mol. Biol. 7:574-581 (1992); R. Dashtaki, et al. R., supra; S. S. Brar, et al., “Requirement for reactive oxygen species in serum-induced and platelet-derived growth factor-induced growth of airway smooth muscle,” J. Biol. Chem. 274:20017-20026 (1999)). This assay empirically distinguishes between dead and living cells. For proliferation studies, cells were seeded into 24-well uncoated plastic plates (Costar) at 50,000 cells per well and cultured with respective media and mitogens. After 24-96 hours, medium was removed, cells were washed twice with 1 ml of sterile Dulbecco's modified phosphate buffered saline without Ca^2+ or Mg^2+ (DPBS), the medium was replaced with 1 ml/well fresh medium containing 100 μg/ml MTT, and plates were incubated an additional hour. MTT-containing medium was removed, 0.5 ml dimethylsulfoxide (DMSO) was added to each well, and the absorbance of the solubilized purple formazan dye was measured at 540 nm. A total of 4-6 wells were studied at each treatment condition. Preliminary studies were performed with 50-200 μg/ml MTT incubated for 15 minutes to 3 hours to determine the optimum concentration and incubation time at which the rate of conversion was linear and proportional to the number of cells present. […]
(Tetrazolium dyes change colour on reduction, which living cells bring about.)

Assay [2] deals with Breast carcinoma MDA-MB-453. The assay can be described thus: MTT proliferation assay, breast carcinoma. The conditions noted are these: Homo sapiens, read-out: Mean Percent Inhibition of Growth; for inhibition at 0.625 µM: disulfiram 0.625 μM; for inhibition at 1.25 µM: disulfiram 1.25 μM; for inhibition at 2.5 µM: disulfiram 2.5 μM; for inhibition at 5 µM: disulfiram 5.0 μM. Format: cell-based. As for the experimental part: as §1, §2, §3

Where [3] appears, read: 5 μM disulfiram plus 250 μg/ml ceruloplasmin.
Where [4] appears, read: treatment after 24 hours of growth, additional 24 hours.
[5] abbreviates: treatment initially, after 48 hours, 10% FBS.
The mark [6] stands for this setting: section 'Treatment after 24 hours' (breast grown 48 hours), additional 48 hours.

With `CCN(CC)C(=S)SSC(=S)N(CC)CC` [Disulfiram, tetraethylthiuram disulfide], in the assay with M1619 melanoma cells (setting [3]), the apoptotic cells is 6%, the “cells in G2-M” value is on record as “none” and the “cells in S phase” value was “Over two-thirds”. In addition, the cell cycle distribution entry with M1619 melanoma cells (5 μM disulfiram) was “increases the portion in S phase”. In assay [1] (setting [4]), the inhibition at 0.625 µM is 30 ± 3%, the inhibition at 1.25 µM was found to be 30 ± 3%, the inhibition at 2.5 µM was found to be 29 ± 1% and the inhibition at 5 µM worked out at 34 ± 3%. Moreover, in assay [1] (setting [5]), the inhibition at 0.625 µM was found to be 47 ± 4%, the inhibition at 1.25 µM was found to be 57 ± 4%, the inhibition at 2.5 µM was 50 ± 3% and the inhibition at 5 µM amounted to 50 ± 4%. For the same compound, in assay [2] (setting [6]), the inhibition at 0.625 µM was found to be 26 ± 5%, the inhibition at 1.25 µM is 26 ± 2%, the inhibition at 2.5 µM turned out to be 39 ± 2% and the inhibition at 5 µM was 46 ± 4%. Moreover, in assay [2] (setting [5]), the inhibition at 0.625 µM is 69 ± 4%, the inhibition at 1.25 µM came to 94 ± 2%, the inhibition at 2.5 µM was determined as 100% and the inhibition at 5 µM turned out to be 100%.
